These results are taken from US20070140897A1, “PH STABLE BIGUANIDE COMPOSITION AND METHOD OF TREATMENT AND PREVENTION OF INFECTIONS” (priority 2005, published 2007).

Values after ≈ are worked out from the molar mass of the structure shown. Some results are limits rather than exact numbers.

Series [1] in a line: Loss of Alexidine due to non-specific binding to glass vial at different pH. The class given is physicochemical. Conditions: 20 ppm, two weeks. On the procedure:
Alexidine sample solutions (20 ppm) were prepared at different pHs and quantitative amount were stored in glass vial for two weeks. At the end of storage, the sample solution was removed and thoroughly rinsed with distilled water. The empty sample vials were then rinsed with 0.1 N HCl solution. The concentration of Alexidine in the acid solution was determined by HPLC assay and the amount recovered from glass wall was calculated in Table 1.

The nature of series [2]: Anterior ocular and systemic pharmacokinetics after repeated topical ocular administration (TID, 10 doses). Format: in vivo, male New Zealand Composite rabbits. Conditions: for AUC(0-24) / DNAUC(0-24) / Cmax / Tmax: TID dosing (dose 10), 10 μg/eye; for Cmax / Tmax: topical or ocular, 10 ug. How it is done:
This study was to investigate anterior ocular and systemic pharmacokinetics of alexidine following repeated topical ocular administration (3 doses/day; 10 doses total) of a 100 ppm solution to male New Zealand Composite rabbits.
This study was carried out using a non-crossover design and a total of 52 naïve male New Zealand Composite rabbits. Each animal (fed) received a topical ocular dose of alexidine at approximately 7 am, 12 noon and 5 pm on Day 1, Day 2 and Day 3. On the morning of Day 4, each animal received the final (10th) topical ocular dose. For each dose administration, animals received approximately 100 μL of a 100 ppm solution (10 μg dose) as a topical instillation into the conjunctival sac of each eye using a positive-displacement pipette.
On Day 4, rabbits (n=4 per collection time) were euthanized and the eyes enucleated and dissected. Samples of blood (centrifuged to obtain plasma), tear, conjunctiva, cornea, and aqueous humor were obtained from both eyes of each animal. Samples were collected prior to administration of the final dose, and 5, 15, and 30 min and 1, 2, 4, 8, 24, 32, 48, 56, and 72 hr after dosing. Non-compartmental methods were used for pharmacokinetic analysis of concentration versus time data. Due to the destructive sampling regimen employed in this study average composite data were used in the pharmacokinetic analysis.
Abbreviations used in this diagram are as follows. Cmax is defined as the maximum mean concentration attained after topical instillation (±SD). Tmax is the time that Cmax was observed.

The nature of series [3]: Pharmacokinetics after single topical ocular dose 10 μg/eye (BL06029). Format: in vivo, rabbit. The following applies: single dose 10 μg/eye (BL06029); for Cmax / Tmax: rabbit, topical or ocular, 10 ug.
Series [4] concerns acantamoeba cysts and trophazoites. Conditions: cited from earlier work.
In a further series the test system is Fusarium Keratomycosis. The following applies: 0.02% solution, rabbit model; cited from earlier work.
The subject of a further series is Acanthamoeba keratitis. The following applies: case report, recurrence in corneal graft; cited from earlier work.
The next series relates to Aspergillus keratitis. The following applies: 0.02%; cited from earlier work.
Where [5] appears, read: male, New Zealand Composite, rabbit, Conjunctiva.
Where [6] appears, read: male, New Zealand Composite, rabbit, Cornea.

Turning to `CCCCC(CC)CNC(=N)NC(=N)NCCCCCCNC(=N)NC(=N)NCC(CC)CCCC` (stereo not drawn) [Alexidine, 1,1′-hexamethylene-bis[5-(2-ethylhexyl)biguanide]], the “% Adsorbed on Glass Vial” value in series [1] (pH 3) was determined as 1.0%; in series [1] (pH 5), 4.0%; in series [1] (pH 7), 7.5%; in series [1] (pH 9) it was 12.5%; in series [1] (pH 11), 23.5%. Further, the “AUC(0-24)” value came to 11461 µg·min/g in series [2] (Conjunctiva), 2727 µg·min/g in series [2] (Cornea), 5697 µg·min/g in series [3] (Conjunctiva) and 557 µg·min/g in series [3] (Cornea). Also, the “DNAUC(0-24)” value is given as 1146 (min · ug/g) ÷ ug in series [2] (Conjunctiva), 273 (min · ug/g) ÷ ug in series [2] (Cornea), 570 (min · ug/g) ÷ ug in series [3] (Conjunctiva) and 55.7 (min · ug/g) ÷ ug in series [3] (Cornea). Besides, the “mean concentrations in conjunctiva” value in series [2] (at all times through the 72 hr after the final 10-μg dose) is recorded as at least 5100 ng/g. Also, the AUC(0-t) in series [2] (male, New Zealand Composite, rabbit, conjunctiva, topical, repeated administration of a 10-μg dose, value used for AUC:MIC90 ratio, read-out: AUC(0-24)) was 191 µg·h/mL. The Cmax – broadly, the maximum level reached in the sampled fluid or tissue – in series [2] (setting [5]) turned out to be 15100 ± 4120 ng/g; in series [2] (setting [6]) it was 3740 ± 1790 ng/g; in series [3] (Conjunctiva) it was 6440 ng/g; in series [3] (Cornea), 997 ng/g. Also, the Tmax (in general, the time from dosing to the highest level) in series [2] (setting [5]) is 5 min; in series [2] (setting [6]) it was 30 min; in series [3] (Conjunctiva) it was 480 min; in series [3] (Cornea), 15 min. In addition, in series [2] (repeated administration of a 100 ppm solution, topical ocular), the tolerability entry was “well tolerated in all animals”. For the same compound, in series [3] (Aq. Humor), the “levels in aqueous humor” value was “No Quantifiable levels (<0.5 ng/mL)”. Also, the levels in plasma entry in series [3] (Plasma) is “No Quantifiable levels (<0.5 ng/mL)”. Further, the minimum inhibitory concentration in series [4] is 6.3 µg/mL (≈ 12.4 µM).
For poly(hexamethylene biguanide) [PHMB], the reducing fungal growth result in the series on Fusarium Keratomycosis is reported as “effective at reducing fungal growth”. Also, the “treatment of recurrences of Acanthamoeba keratitis” value in the series with Acanthamoeba keratitis is listed as “successfully treated”. For the same compound, the “effectiveness in experimental Aspergillus keratitis” value with Aspergillus keratitis was “moderately effective”.
